The test is described as follows: Inhibition of Trypanosoma cruzi trans-sialidase.

One compound from ChEMBL document CHEMBL5108075, “Sialidase Inhibitors with Different Mechanisms” (J Med Chem, 2022) can be followed below.

As to `CC(=O)N[C@H]1[C@H]([C@H](O)[C@H](O)CO)OC(Oc2ccc([N+](=O)[O-])cc2C(F)F)(C(=O)O)C[C@H]1O` (stereo partly specified), half-maximal inhibition (IC50) required 600 µM.
